Measured values: article PMC6934184, “Selective DNA-PKcs inhibition extends the therapeutic index of localized radiotherapy and chemotherapy” (The Journal of Clinical Investigation, 2019)

Biological target: T1, SGK2 (Homo sapiens, UniProt Q9HBY8)
T1 construct: purchased Thermo Fisher Scientific (Life Technologies) SelectScreen
Test: SelectScreen Z'LYTE
Assay type: biochemical
In short: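 SelectScreen broad panel; activity (Z'LYTE, Adapta) plus binding formats. ATP: Km app for CSF1R Z'LYTE; 10 for CAMK1 Adapta. Readout = % per kinase.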

T1 sequence (Q9HBY8 whole entry): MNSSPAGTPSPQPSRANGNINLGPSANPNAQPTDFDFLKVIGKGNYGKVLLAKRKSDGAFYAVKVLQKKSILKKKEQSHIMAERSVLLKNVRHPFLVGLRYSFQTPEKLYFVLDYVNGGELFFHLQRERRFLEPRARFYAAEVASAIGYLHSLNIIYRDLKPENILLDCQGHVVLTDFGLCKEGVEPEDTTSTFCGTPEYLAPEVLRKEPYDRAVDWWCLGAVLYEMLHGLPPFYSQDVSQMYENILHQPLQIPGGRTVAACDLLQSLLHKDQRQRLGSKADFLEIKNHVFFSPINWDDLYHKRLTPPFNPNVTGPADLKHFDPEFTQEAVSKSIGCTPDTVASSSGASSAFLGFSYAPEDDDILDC

CN(C(=O)CN1CCOCC1)c1ccc2sc3c(-c4cccc5c(=O)cc(N6CC7CCC(C6)O7)oc45)cccc3c2c1 [NU5455]
inhibition at 1 µM: -2.7%
